In the supplement of paper PMC10307832:

Tests used:
Assay in all cases: relative viability (nuclei count vs DMSO), 5 days (fraction); higher = more cells survive
Metformin = compound: CN(C)C(=N)NC(=N)N [Metformin]
Procedure, shortened: (§1)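 Hoechst staining, done together with fixation and permeabilisation, marked nuclei for 4× imaging and MetaXpress counting. This followed 5 days without medium change after lung cancer cell lines, kept overnight at 37 °C in 1536-well plates, were pinned with five library-drug doses (not always all listed) spaced by √10 on vehicle-anchored plates. Viability is the ratio of treated-well to vehicle-well nuclei, expressed as a median across plates. Plates passed only at control CV below 25% with at least one doubling.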

Apatinib = compound: N#CC1(c2ccc(NC(=O)c3cccnc3NCc3ccncc3)cc2)CCCC1 [Apatinib]
Procedure, shortened: as §1

Metformin + Pemetrexed = compound: CN(C)C(=N)NC(=N)N [Metformin] + Nc1nc2[nH]cc(CCc3ccc(C(=O)N[C@@H](CCC(=O)O)C(=O)O)cc3)c2c(=O)[nH]1 [Pemetrexed] (partner 0.2 µM)
Procedure, shortened: (§2)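 A single step with final 0.05% Triton X-100, 1% formaldehyde and 1 ug/ml Hoechst fixed the cells and stained nuclei 5 days after treatment. Lung cancer cell lines in 1536-well plates had been treated by pin tool the day after seeding with one drug alone or a fixed anchor-drug dose plus five library-drug doses (not always all listed) in √10 steps, and nuclei were counted on 4× images. Relative viability is the ratio of nuclei in treated wells to nuclei in vehicle wells, taken as the median of duplicate plates.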

Apatinib + Crizotinib = compound: N#CC1(c2ccc(NC(=O)c3cccnc3NCc3ccncc3)cc2)CCCC1 [Apatinib] + C[C@@H](Oc1cc(-c2cnn(C3CCNCC3)c2)cnc1N)c1c(Cl)ccc(F)c1Cl [Crizotinib] (partner 1 µM)
Procedure, shortened: as §2

For NCI-H460, the relative viability (Metformin; 31.62 µM) was 1.01, the relative viability (Metformin; 100 µM) was 1 and the relative viability (Metformin; 316.23 µM) was 0.976. For the same cell line, the relative viability (Metformin; 1000 µM) was 1.07, the relative viability (Apatinib; 0.08 µM) was 0.976 and the relative viability (Apatinib; 0.253 µM) was 0.99. It also gave a relative viability (Apatinib; 0.8 µM) of 0.963, a relative viability (Apatinib; 2.53 µM) of 0.925 and a relative viability (Apatinib; 8 µM) of 0.93. For the same cell line, the relative viability (Metformin + Pemetrexed; first compound 31.62 µM) was 0.0599, the relative viability (Metformin + Pemetrexed; first compound 100 µM) was 0.0625 and the relative viability (Metformin + Pemetrexed; first compound 316.23 µM) was 0.0535. It also gave a relative viability (Metformin + Pemetrexed; first compound 1000 µM) of 0.0639, a relative viability (Apatinib + Crizotinib; first compound 0.08 µM) of 1.04 and a relative viability (Apatinib + Crizotinib; first compound 0.253 µM) of 0.907. For the same cell line, the relative viability (Apatinib + Crizotinib; first compound 0.8 µM) was 0.727, the relative viability (Apatinib + Crizotinib; first compound 2.53 µM) was 0.848 and the relative viability (Apatinib + Crizotinib; first compound 8 µM) was 0.857.
